Data set [1] in a line: In vitro Caco-2 permeability assay. It is filed as in vitro ADME. The settings on record: human, Caco-2. For orientation: Caco-2 cells form a polarised layer with tight junctions and transporters.
For the next data set, the system named is Caco-2. Kind of data set: In vitro Caco-2 permeability assay. The format is in vitro ADME. The settings on record: test conc. 10 μmol/l, 2 h.
For data set [2], the system named is TrkB receptor. The note with it: cited from earlier work.
Data set [3] has as its target T1, TrkB receptor (Rattus norvegicus, UniProt Q63604). Kind of data set: TrkB activation in primary cortical neurons. The format is cell-based. The note with it: for TrkB activation in primary neurons (p-TrkB Y816): 500 nmol/l, 15 min, primary cortical neurons.
Data set [4] concerns the target T2, TrkB (Mus musculus, UniProt P15209). Kind of data set: TrkB activation in mouse brain after oral gavage. The format is in vivo, C57BL/6J mice. The settings on record: 5 mg/kg oral gavage, brain collected at 2 h.
Data set [5] addresses T2, TrkB. The note with it: oral administration, at 2 or 4 h; cited from earlier work.
The next data set deals with Akt. In words: p-Akt ELISA of mouse brain samples. The note with it: for p-Akt versus control in entacapone-treated and tolcapone-treated groups (ELISA): COMT inhibitor 30 mg/kg pretreatment, flavonoid 5 mg/kg. It is filed as in vivo, C57BL/6J mice.
Data set [6] has as its system mice. The settings on record: cited from earlier work.
Data set [7] can be described thus: In vivo pharmacokinetic study of 7,8-DHF, plasma and brain by HPLC-MS/MS. Also noted: species or system CD-1 mice. The note with it: for half-life: T1/2, plasma.
The subject of data set [8] is mice. Kind of data set: Tail suspension test. It is filed as in vivo, C57BL/6J mice. The settings on record: 5 mg/kg orally once a day for 21 days.
In data set [9] the test system is mice. Kind of data set: Forced swim test. The format is in vivo, C57BL/6J mice. The settings on record: 5 mg/kg orally once a day for 21 days.
In data set [10] the target is T2, TrkB. In words: Immunohistochemistry staining of p-TrkB in the dentate gyrus. The format is in vivo, mice. The settings on record: 5 mg/kg orally for 21 days.
For data set [11], the system named is dentate gyrus. Kind of data set: Neurogenesis assay via BrdU incorporation in the dentate gyrus. The settings on record: 5 mg/kg orally for 21 days. The format is in vivo, C57BL/6J mice. For orientation: Uptake of a labelled nucleoside into DNA is a usual measure of proliferation.
For data set [12], the target named is T1, TrkB receptor. The settings on record: cited from earlier work.
The conditions of data set [13]: chronic treatment, dose of 5 mg/kg; cited from earlier work.
The subject of data set [14] is dentate gyrus. The settings on record: chronic treatment; cited from earlier work.
[15] abbreviates: male, CD-1, mouse, plasma, po, 50 mg/kg, mice, after 7,8-DHF p.o. 50 mg/kg.
[16] abbreviates: mice, after 7,8-DHF p.o. 50 mg/kg.
[17] abbreviates: male, CD-1, mouse, plasma, po, 50 mg/kg.

What is called Papp A→B is the apparent permeability from the apical to the basolateral side of a cell layer. A lower Papp A→B goes with slow passage. By Papp B→A is commonly meant how fast a substance crosses the layer from the basolateral side. One may read the efflux ratio as a quotient of directional permeabilities that is used to spot active efflux. One may read the half-life as how long it takes for the measured level to halve. In general, Cmax refers to the maximum level reached in the sampled fluid or tissue. By AUC(0-inf) is commonly meant total exposure, with the tail of the curve extrapolated. High values mean more exposure, low ones less exposure. In general, AUC(0-t) refers to the area under the concentration-time curve up to a stated or last time point. As usually defined, the Tmax is the time at which the peak concentration occurs.

Entries after “also recorded” stand apart in the source; their conditions may differ. Like-named read-outs stand apart in the source and are kept apart here.

T1 sequence (Q63604 32-821): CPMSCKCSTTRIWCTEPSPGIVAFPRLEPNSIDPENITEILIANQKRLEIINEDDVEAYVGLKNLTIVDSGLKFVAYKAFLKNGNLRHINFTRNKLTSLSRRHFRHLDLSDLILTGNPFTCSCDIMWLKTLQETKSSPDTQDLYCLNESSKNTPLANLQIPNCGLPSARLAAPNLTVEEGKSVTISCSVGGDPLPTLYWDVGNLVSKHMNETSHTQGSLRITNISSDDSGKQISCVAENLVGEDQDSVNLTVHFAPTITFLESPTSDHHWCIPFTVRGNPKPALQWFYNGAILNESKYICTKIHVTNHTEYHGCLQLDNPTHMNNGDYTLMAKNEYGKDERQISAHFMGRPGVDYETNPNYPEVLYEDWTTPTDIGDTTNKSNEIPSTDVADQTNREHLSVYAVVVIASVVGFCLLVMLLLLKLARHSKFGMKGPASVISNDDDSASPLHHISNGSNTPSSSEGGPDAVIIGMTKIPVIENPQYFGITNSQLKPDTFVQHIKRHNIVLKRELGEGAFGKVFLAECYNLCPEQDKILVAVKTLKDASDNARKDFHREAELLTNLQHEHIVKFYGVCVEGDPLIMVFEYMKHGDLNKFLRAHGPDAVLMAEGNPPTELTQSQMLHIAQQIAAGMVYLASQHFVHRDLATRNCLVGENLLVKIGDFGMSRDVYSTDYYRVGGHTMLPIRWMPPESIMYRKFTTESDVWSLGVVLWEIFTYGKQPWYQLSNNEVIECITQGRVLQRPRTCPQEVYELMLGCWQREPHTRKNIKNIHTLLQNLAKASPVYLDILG
T2 sequence (P15209 32-821): as the sequence (Q63604 32-821) above, with M3T, T9S, T10A, I32V, K63R, G84S, T153M, I185L, T394S, N770S counted along it

In the case of `CNC(=C[N+](=O)[O-])NCCSCc1ccc(CN(C)C)o1` [Ranitidine, reference compound], in data set [1], the Papp A→B at 2 h, 10 μmol/l worked out at 0.3 ×10⁻⁶ cm/s; the Papp B→A at 2 h, 10 μmol/l worked out at 2.9 ×10⁻⁶ cm/s; the efflux ratio at 2 h, 10 μmol/l is 10.9. Further, the “Comment (Caco-2 permeability)” value in the data set on Caco-2 is “low permeability, efflux”.
Consider `O=c1cc(-c2ccccc2)oc2cc(O)cc(O)c12` [5,7-dihydroxyflavone], for which the TrkB agonistic effect result in the data set with TrkB receptor [2] was “but not 5,6-dihydroxyflavone or 5,7-dihydroxyflavone possess a TrkB agonistic effect”.
As to `CC(=O)CC(c1ccccc1)c1c(O)c2ccccc2oc1=O` (centres unmarked) [Warfarin, reference compound], in data set [1], the Papp A→B at 2 h, 10 μmol/l stood at 52.6 ×10⁻⁶ cm/s; the Papp B→A at 2 h, 10 μmol/l was determined as 18.3 ×10⁻⁶ cm/s; the efflux ratio at 2 h, 10 μmol/l was determined as 0.3. The “Comment (Caco-2 permeability)” value with Caco-2 is “high permeability control”.
Turning to `O=c1cc(-c2cccc(O)c2)oc2cc(O)c(O)cc12` [6,7,3′-trihydroxyflavone], in the data set with TrkB receptor [2], the TrkB agonistic effect entry is given as “possess a TrkB agonistic effect”.
As to `CN(C)c1ccc(-c2cc(=O)c3ccc(O)c(O)c3o2)cc1` [4′-DMA-7,8-DHF, 4′-dimethylamino-7,8-DHF], at TrkB receptor [3], the “TrkB activation in primary neurons (p-TrkB Y816)” value is “more robust TrkB agonistic activity than 7,8-DHF; also recorded: activated TrkB receptor signaling pathways in primary neurons”. Besides, the “TrkB activation in mouse brain (p-TrkB Y816)” value at TrkB [4] is given as “obviously activated TrkB compared to vehicle control”. Further, in the data set on Caco-2, the “Comment (Caco-2 permeability)” value is on record as “poor recovery A to B”, the “Mean A→B Papp” value was 0.9 10^−6 cm•s^−1 and the “Mean B→A Papp” value was 3.1 10^−6 cm•s^−1. Further, the Efflux ratio with Caco-2 (>2 indicates significant efflux activity) turned out to be 3.6. Also, at TrkB [5], the “TrkB activation in mouse brain” value is reported as “evidently activates the TrkB receptor in mouse brain”. Moreover, in the data set on Akt (1 mg/kg oral, 2 h), the “Akt activation in mouse brain (p-Akt ELISA)” value is on record as “potently activated Akt”. Further, in the data set on Akt, the “p-Akt versus control in entacapone-treated and tolcapone-treated groups (ELISA)” value is recorded as “no significant changes”. In the data set on mice [6] (chronic treatment), the “immobility in FST” value is recorded as “robustly decreased the immobility in FST after chronic treatment”.
As to `O=c1cc(-c2ccccc2)oc2cc(O)c(O)cc12` [6,7-dihydroxyflavone], the TrkB agonistic effect result in the data set with TrkB receptor [2] is “possess a TrkB agonistic effect”.
In data set [7] (setting [15]), `COc1c(O)ccc2c(=O)cc(-c3ccccc3)oc12` [8-methoxy-metabolite, 7-hydroxy-8-methoxyflavone] gave a half-life of 2.47 h. In [7] (setting [16]), the “earliest observation in brain” value was 3 min.
As to `O=c1cc(-c2ccccc2)oc2ccc(O)c(O)c12` [5,6-dihydroxyflavone], the TrkB agonistic effect result with TrkB receptor [2] was “but not 5,6-dihydroxyflavone or 5,7-dihydroxyflavone possess a TrkB agonistic effect”.
`COc1ccc2c(=O)cc(-c3ccccc3)oc2c1O` [H428, 7-methoxy-8-hydroxyflavone]: the “immobility in TST” value in the data set on mice [8] is listed as “substantially decreased the immobility”. Moreover, in the data set on mice [9], the “immobility in FST” value is “strongest effect”. Moreover, the “TrkB activation in primary neurons (p-TrkB Y816)” value at TrkB receptor [3] was “activates the TrkB receptor in primary neurons”. Also, at TrkB [10], the “TrkB phosphorylation in the dentate gyrus (immunohistochemistry)” value is given as “strongly provoked TrkB phosphorylation in the dentate gyrus”. Besides, the “TrkB activation in mouse brain (p-TrkB Y816)” value on TrkB [4] is given as “clearly activated the TrkB receptor compared to vehicle control”. In [7] (setting [15]), this molecule displayed a half-life of 1.53 h. For the same molecule, in data set [7] (setting [16]), the “earliest detection in plasma” value worked out at 3 min and the “plasma concentration at 6 h” value is on record as “below the quantitative limit”. Also, the “detection in mouse brain at any time” value in data set [7] (mice, after 7,8-DHF p.o. 50 mg/kg, 50 mg/kg) is listed as “below the limit of quantification”. Further, the “neurogenesis (BrdU-positive cells in the dentate gyrus)” value in the data set with dentate gyrus [11] is “significantly promoted neurogenesis compared to vehicle”.
Take `O=c1cc(-c2ccccc2)oc2c(O)c(O)ccc12` [7,8-DHF, 7,8-Dihydroxyflavone]: the “concentration at which TrkB phosphorylation was prominent” value on TrkB receptor [12] is 100 nmol/L. Moreover, the toxicity result in [13] is on record as “reveals no demonstrable toxicity”. Besides, at TrkB [4], the “TrkB activation in mouse brain (p-TrkB Y816)” value was “clearly activated the TrkB receptor compared to vehicle control; also recorded: obviously activated TrkB compared to vehicle control”. Further, in [1], the Papp A→B at 2 h, 10 μmol/l came out at 1.5 ×10⁻⁶ cm/s; the Papp B→A at 2 h, 10 μmol/l is 1.7 ×10⁻⁶ cm/s; the efflux ratio at 2 h, 10 μmol/l was found to be 1.2. Besides, the “Comment (Caco-2 permeability)” value with Caco-2 is listed as “poor recovery A to B”. Moreover, the “brain concentration of parent compound relative to methylated metabolite” value in data set [7] (brain, mice, after 7,8-DHF p.o. 50 mg/kg) was “approximately 30 fold”. In [7] (male, CD-1, mouse, brain, po, 50 mg/kg), this molecule yielded a Cmax of 70 ng/mL. Besides, in data set [7] (setting [17]), the AUC(0-inf) is 125 ng·h/mL, the area under the curve AUC(0-t) is 108 ng·h/mL, the Cmax was 70 ng/mL and the Tmax is 0.167 h. The molecule further registered a half-life in [7] (setting [15]) of roughly 2.23 h. The “brain concentration at 6 h” value in data set [7] (setting [16]) is recorded as “below the quantitative limit”. In addition, in data set [7] (mice, oral dosing of 50 mg/kg 7,8-DHF), the “penetration of the brain-blood barrier” value was “can penetrate the brain-blood barrier”. Further, the “TrkB activation in mouse brain” value on TrkB [5] is listed as “evidently activates the TrkB receptor in mouse brain”. In the data set on dentate gyrus [14], the “neurogenesis in the dentate gyrus” value was “enhances neurogenesis in the dentate gyrus”. The “p-Akt versus control in entacapone-treated and tolcapone-treated groups (ELISA)” value in the data set with Akt was “no significant changes”. For the same molecule, in the data set with mice [6] (acute injection), the latency of immobility result is reported as “has no effect on the latency of immobility”. Moreover, the “immobility in FST” value in the data set with mice [6] (chronic treatment) is recorded as “robustly decreased the immobility in FST after chronic treatment”. In addition, in the data set on mice [6] (subchronic intraperitoneal injection), the “immobility in FST” value is recorded as “significantly decreases immobility in FST”.
On to `COc1ccc2c(=O)cc(-c3ccccc3)oc2c1OC` [D024], for which, at TrkB [4], the “TrkB activation in mouse brain (p-TrkB Y816)” value is “elicited TrkB activation (p-TrkB Y816), but the effect was not as strong as that of the other two compounds” and the “p-TrkB 706 immunoblotting in mouse brain” value is given as “elicited the strongest p-TrkB signal”.

B1: BDNF: Brain-derived neurotrophic factor, member of the neurotrophin family; positive control from Roche (protein, UniProt P23560 19-247, looked up)
Neurotrophic factor BDNF …: APMKEANIRGQGGLAYPGVRTHGTLESVNGPKAGSRGLTSLADTFEHVIEELLDEDQKVRPNEENNKDADLYTSRVMLSSQVPLEPPLLFLLEEYKNYLDAANMSMRVRRHSDPARRGELSVCDSISEWVTAADKKTAVDMSGGTVTVLEKVPVSKGQLKQYFYETKCNPMGYTKEGCRGIDKRHWNSQCRTTQSYVRALTMDSKKRIGWRFIRIDTSCVCTLTIKRGR
In the case of B1, in the data set with TrkB receptor [3] (titration assay in primary neurons), the “concentration eliciting TrkB activation” value lay in the range of 1 to 30 nmol/L.

Values taken from publication PMC4793717 (Pharmacology, 2013).
